Laboratory results taken from patent US7214396B2, “Confectionery product containing functional ingredients and method of making and using” (Nestec S.A., priority 2000, dated 2007).

Key:
[1] = cited from earlier work; for solubility: water at 37° C.
[2] = cooling effect: instant fall of temperature when powder is added to water; format: physicochemical; conditions: 150 g of powder added to 50 ml of water at 37° C.
Procedure: A suitable monosaccharide polyol is preferably selected from the group consisting of xylitol, erythritol, sorbitol or a combination thereof. […] (Instant fall of temperature when 150 g of powder are added to 50 ml of water at 37° C.).

| measured cooling effect (instant fall of temperature) [2] | Compound | water solubility compared with other polyols ([1]; anhydride crystals) | solubility [1] |
| --- | --- | --- | --- |
|  | OC[C@@H](O)[C@@H](O)CO [Erythritol] | less water soluble |  |
|  | OC[C@@H](O)[C@@H](O[C@H]1O[C@H](CO)[C@@H](O)[C@H](O)[C@H]1O)[C@H](O)[C@@H](O)CO [maltitol, reference compound] |  | less than 205 g/100 g |
| about −22 °C | OC[C@@H](O)[C@@H](O)[C@H](O)[C@@H](O)CO [sorbitol] |  | 330–340 g/100 g |
|  | OC[C@H]1O[C@@](CO)(O[C@H]2O[C@H](CO)[C@@H](O)[C@H](O)[C@H]2O)[C@@H](O)[C@@H]1O [sucrose, reference compound] |  | under 230 g/100 g |
| about −20 °C | OC[C@@H](O)[C@H](O)[C@@H](O)CO [xylitol] |  | 250–260 g/100 g |
